Source: patent EP2641901A1, “Novel microbiocides” (Syngenta Participations AG, priority 2012, dated 2013)

How the values were obtained:
Pythium ultimum = Pythium ultimum / liquid culture (seedling damping off); assay type: cell-based; conditions: 200ppm; liquid culture (potato dextrose broth), 24°C; inhibition of growth determined photometrically 2-3 days after application
Experimental: Pythium ultimum / liquid culture (seedling damping off) Mycelia fragments and oospores of a newly grown liquid culture of the fungus were directly mixed into nutrient broth (potato dextrose broth). After placing a DMSO solution of test compound into a 96-well format microtiter plate at an application rate of 200ppm, the nutrient broth containing the fungal mycelia/spore mixture was added. The test plates were incubated at 24°C and the inhibition of growth was determined photometrically 2-3 days after application. […] P.01, P.02

[1] = tested on: Puccinia recondita f. sp. tritici; experiment: Puccinia recondita f. sp. tritici / wheat / leaf disc preventative (Brown rust); assay type: in vivo; conditions: 200ppm, wheat leaf segments cv Kanzler, inoculated 1 day after application, percent disease control compared to untreated, 7 - 9 days after application
Experimental: Puccinia recondita f. sp. tritici l wheat / leaf disc preventative (Brown rust): Wheat leaf segments cultivated variety (cv) Kanzler were placed on agar in 24-well plates and sprayed with formulated test compound diluted in water at an application rate of 200ppm. The leaf disks were inoculated with a spore suspension of the fungus 1 day after application. The inoculated leaf segments were incubated at 19°C and 75% relative humidity under a light regime of 12/12 h (light/dark) in a climate cabinet and the activity of a compound was assessed as percent disease control compared to untreated when an appropriate level of disease damage appears in untreated check leaf segments (7 - 9 days after application). […] P.01, P.02

Glomerella lagenarium = Glomerella lagenarium (Colletotrichum lagenarium) / liquid culture (Anthracnose); assay type: cell-based; conditions: 200ppm; liquid culture (PDB potato dextrose broth), 24°C; inhibition of growth measured photometrically 3-4 days after application
Experimental: Glomerella lagenarium (Colletotrichum lagenarium) / liquid culture (Anthracnose) : Conidia of the fungus from cryogenic storage were directly mixed into nutrient broth (PDB potato dextrose broth). After placing a DMSO solution of test compound into a 96-well microtiter plate at an application rate of 200ppm, the nutrient broth containing the fungal spores was added. The test plates were incubated at 24°C and the inhibition of growth was measured photometrically 3-4 days after application. […] P.01, P.02

Botryotinia fuckeliana = Botryotinia fuckeliana (Botrytis cinerea) / liquid culture (Gray mould); assay type: cell-based; conditions: 200ppm; liquid culture (Vogels broth), 24°C; inhibition of growth determined photometrically 3-4 days after application
Experimental: Botryotinia fuckeliana (Botrytis cinerea) / liquid culture (Gray mould): Conidia of the fungus from cryogenic storage were directly mixed into nutrient broth (Vogels broth). After placing a DMSO solution of test compound into a 96-well microtiter plate at an application rate of 200ppm, the nutrient broth containing the fungal spores was added. The test plates were incubated at 24°C and the inhibition of growth was determined photometrically 3-4 days after application. […] P.01, P.02

Thanatephorus cucumeris = Thanatephorus cucumeris (Rhizoctonia solani) / liquid culture (foot rot, damping-off); assay type: cell-based; conditions: 200ppm; liquid culture (PDB potato dextrose broth), 24°C; inhibition of growth determined photometrically 3-4 days after application
Experimental: Thanatephorus cucumeris (Rhizoctonia solani) / liquid culture (foot rot, damping-off): Mycelia fragments of a newly grown liquid culture of the fungus were directly mixed into nutrient broth (PDB potato dextrose broth). After placing a DMSO solution of the test compounds into a 96-well microtiter plate at an application rate of 200ppm, the nutrient broth containing the fungal material was added. The test plates were incubated at 24°C and the inhibition of growth was determined photometrically 3-4 days after application. […] P.01, P.02

[2] = tested on: Blumeria graminis f. sp. tritici; experiment: Blumeria graminis f. sp. tritici / wheat / leaf disc preventative (Powdery mildew on wheat); assay type: in vivo; conditions: 200ppm, wheat leaf segments cv. Kanzler, inoculated 1 day after application, percent disease control compared to untreated, 6 - 8 days after application
Experimental: Blumeria graminis f. sp. tritici (Erysiphe graminis f. sp. tritici) / wheat / leaf disc preventative (Powdery mildew on wheat): Wheat leaf segments cv. Kanzler were placed on agar in a 24-well plate and sprayed with the formulated test compound diluted in water at an application rate of 200ppm. The leaf disks were inoculated by shaking powdery mildew infected plants above the test plates 1 day after application. The inoculated leaf disks were incubated at 20°C and 60% relative humidity under a light regime of 24 h darkness followed by 12h/12h (dark/light) in a climate chamber and the activity of a compound was assessed as percent disease control compared to untreated when an appropriate level of disease damage appears on untreated check leaf segments (6 - 8 days after application). […] P.01, P.02

Monographella nivalis = Monographella nivalis (Microdochium nivale) / liquid culture (foot rot cereals); assay type: cell-based; conditions: 200ppm; liquid culture (PDB potato dextrose broth), 24°C; inhibition of growth determined photometrically 4-5 days after application
Experimental: Monographella nivalis (Microdochium nivale) / liquid culture (foot rot cereals): Conidia of the fungus from cryogenic storage were directly mixed into nutrient broth (PDB potato dextrose broth). After placing a DMSO solution of test compound into a 96-well microtiter plate at an application rate of 200ppm, the nutrient broth containing the fungal spores was added. The test plates were incubated at 24°C and the inhibition of growth was determined photometrically 4-5 days after application. […] P.01, P.02

Phaeosphaeria nodorum = Phaeosphaeria nodorum / wheat / leaf disc preventative (Glume blotch); assay type: in vivo; conditions: 200ppm, wheat leaf segments cv Kanzler, inoculated 2 days after application, percent disease control compared to untreated, 5 - 7 days after application
Experimental: Phaeosphaeria nodorum (Septorla nodorum) / wheat / leaf disc preventative (Glume blotch): Wheat leaf segments cv Kanzler were placed on agar in a 24-well plate and sprayed with formulated test compound diluted in water at an application rate of 200ppm. The leaf disks were inoculated with a spore suspension of the fungus 2 days after application. The inoculated test leaf disks were incubated at 20°C and 75% relative humidity under a light regime of 12/12 h (light/dark) in a climate cabinet and the activity of a compound was assessed as percent disease control compared to untreated when an appropriate level of disease damage appears in untreated check leaf disks (5 - 7 days after application). […] P.01, P.02

[3] = tested on: Puccinia recondita f. sp. tritici; experiment: Puccinia recondita f. sp. tritici / wheat / leaf disc curative (Brown rust); assay type: in vivo; conditions: 200ppm, wheat leaf segments cv Kanzler, applied 1 day after inoculation, percent disease control compared to untreated, 6 - 8 days after application
Experimental: Puccinia recondita f. sp. tritici / wheat / leaf disc curative (Brown rust): Wheat leaf segments cv Kanzler were placed on agar in 24-well plates. The leaf segments were inoculated with a spore suspension of the fungus. The plates were stored in darkness at 19°C and 75% relative humidity. The formulated test compound diluted in water was applied at an application rate of 200ppm 1 day after inoculation. The leaf segments were incubated at 19°C and 75% relative humidity under a light regime of 12/12 h (light/dark) in a climate cabinet and the activity of a compound was assessed as percent disease control compared to untreated when an appropriate level of disease damage appears in untreated check leaf segments (6 - 8 days after application). […] P.01, P.02

[4] = tested on: Mycosphaerella graminicola; experiment: Mycosphaerella graminicola (Septoria tritici) / liquid culture (Septoria blotch); assay type: cell-based; conditions: 200ppm; liquid culture (PDB potato dextrose broth), 24°C; inhibition of growth determined photometrically 4-5 days after application
Experimental: Mycosphaerella graminicola (Septoria tritici) / liquid culture (Septoria blotch): Conidia of the fungus from cryogenic storage were directly mixed into nutrient broth (PDB potato dextrose broth). After placing a DMSO solution of test compound into a 96-well microtiter plate at an application rate of 200ppm, the nutrient broth containing the fungal spores was added. The test plates were incubated at 24°C and the inhibition of growth was determined photometrically 4-5 days after application. […] P.01, P.02

Pyrenophora teres = Pyrenophora teres / barley / leaf disc preventative (Net blotch); assay type: in vivo; conditions: 200ppm, barley leaf segments cv Hasso, inoculated two days after application, disease control compared to untreated, 5 - 7 days after application
Experimental: Pyrenophora teres / barley / leaf disc preventative (Net blotch): Barley leaf segments cv Hasso were placed on agar in a 24-well plate and sprayed with formulated test compound diluted in water at an application rate of 200ppm. The leaf segments were inoculated with a spore suspension of the fungus two days after application of the test solution. The inoculated leaf segments were incubated at 20°C and 65% relative humidity under a light regime of 12/12 h (light/dark) in a climate cabinet and the activity of a compound was assessed as disease control compared to untreated when an appropriate level of disease damage appears in untreated check leaf segments (5 - 7 days after application). […] P.01, P.02

Magnaporthe grisea = assay type: in vivo; conditions: 200ppm; rice leaf segments cv. Ballila, preventative, inoculated 2 days after application; percent disease control compared to untreated, 5 - 7 days after application
Mycosphaerella arachidis = Mycosphaerella arachidis (Cercospora arachidicola) / liquid culture (early leaf spot); assay type: cell-based; conditions: 200ppm; liquid culture (PDB potato dextrose broth), 24°C; inhibition of growth determined photometrically 4-5 days after application
Experimental: Mycosphaerella arachidis (Cercospora arachidicola) / liquid culture (early leaf spot): Conidia of the fungus from cryogenic storage were directly mixed into nutrient broth (PDB potato dextrose broth). After placing a DMSO solution of test compound into a 96-well microtiter plate at an application rate of 200ppm, the nutrient broth containing the fungal spores was added. The test plates were incubated at 24°C and the inhibition of growth was determined photometrically 4-5 days after application. […] P.01, P.02

CO/N=C1\CCCc2ccc(CCCO/N=C(\C)c3cccc(C)n3)nc21 [P.02]
at least 80%: control of Pythium ultimum (Pythium ultimum) | control of Puccinia recondita f. sp. tritici [1] | control of Glomerella lagenarium (Glomerella lagenarium) | control of Botryotinia fuckeliana (Botryotinia fuckeliana) | control of Thanatephorus cucumeris (Thanatephorus cucumeris) | control of Blumeria graminis [2] | control of Monographella nivalis (Monographella nivalis) | control of Phaeosphaeria nodorum (Phaeosphaeria nodorum) | control of Puccinia recondita f. sp. tritici [3] | control of Mycosphaerella graminicola [4] | control of Pyrenophora teres (Pyrenophora teres) | control of Magnaporthe grisea (Magnaporthe grisea) | control of Mycosphaerella arachidis (Mycosphaerella arachidis)
